This note sets out measurements from paper PMC10057480, “Expanding the Library of 1,2,4-Oxadiazole Derivatives: Discovery of New Farnesoid X Receptor (FXR) Antagonists/Pregnane X Receptor (PXR) Agonists” (Molecules, 2023).

This assay has as its system FXR target genes (BSEP, OSTα, NTCP) in HepG2 cells. Put plainly: qPCR of FXR target genes in HepG2 cells. Format: cell-based. Conditions: 6-ECDCA 10 μM plus compound. As to the method:
HepG2 and CaCo2 cell lines, obtained from ATCC, were routinely cultured in Eagle’s MEM and high-glucose DMEM, respectively, supplemented with 10% FBS, 1% glutamine, and penicillin/streptomycin. For in vitro experiments, HepG2 (2 × 106) cells were stimulated with 6-ECDCA at a concentration of 10 µM alone or in combination with compound 5 or 11, and CaCo2 cells were exposed to TNFα (100 ng/mL) alone or in combination with rifaximin, compound 5, or 11.
Total RNA was isolated from the HepG2 and CaCo2 cell lines using TRI reagent (Zymo Research) and Direct-zol™ RNA MicroPrep w/Zymo-Spin™ IIC Columns (Zymo Research, Irvine, CA, USA). After purification from genomic DNA using DNase I (Thermo Fisher Scientific, Waltham, MA, USA), 2 μg of RNA from each sample was reverse transcribed using Kit FastGene Scriptase Basic (Nippon Genetics, Mariaweilerstraße, Düren, Germany) in 20-μL of reaction volume, and 50 ng of cDNA was amplified in a 20-μL solution containing 200 nM of each primer and 10 μL of PowerUp™ SYBR™ Green Master Mix (Thermo Fisher Scientific, Waltham, MA, USA) using a Quantstudio 3 system (Applied Biosystems, Foster City, CA, USA). The relative mRNA expression was calculated according to the ΔCt method. The primer used were as follows (forward and reverse): hGapdh (for […]; rev […]), hBsep (for […]; rev […]), hOstα (for […]; rev […]), hNtcp (for […]; rev […]), hPxr (for GCAAGGGCTTTTTCAGGAG; rev GGGTCTTCCGGGTGATCT), hIl-8 (for […]; rev […]), hIl-1β (for […]; rev […]).

For the molecule `CCCCCN1CCC(c2nc(-c3ccc4ccccc4c3)no2)CC1` [Compound 5, 3-(Naphthalen-2-yl)-5-(1-pentylpiperidin-4-yl)-1,2,4-oxadiazole], the “Effect on BSEP mRNA expression induced by 6-ECDCA” value is given as “reversed the effect”, the “Effect on NTCP mRNA expression” value is on record as “showed antagonistic activity” and the “Effect on OSTα mRNA expression induced by 6-ECDCA” value was “only a trend”.
For the molecule `OCc1ccc(CN2CCC(c3nc(-c4ccc5ccccc5c4)no3)CC2)cc1` [Compound 11, 5-[1-(4-(Hydroxymethyl)benzyl)piperidin-4-yl]-3-(naphthalen-2-yl)-1,2,4-oxadiazole], the “Effect on BSEP mRNA expression induced by 6-ECDCA” value is reported as “reversed the effect” and the “Effect on OSTα mRNA expression induced by 6-ECDCA” value is “only a trend”.
